Consider nine compounds from article PMC9963659, “Novel 2-Thiouracil-5-Sulfonamide Derivatives: Design, Synthesis, Molecular Docking, and Biological Evaluation as Antioxidants with 15-LOX Inhibition” (Molecules, 2023).

A short description of series [1]: Hydrogen peroxide scavenging assay. The note with it: mean ± SEM of three experiments. The class given is biochemical. As to the method: H2O2 assay is used to estimate the scavenging power of the target compounds (4–9) to H2O2.
The hydrogen peroxide (H2O2) scavenging activity of all novel synthesized compounds 3–9 was measured as previously reported (see Supplementary Materials).
1-Biological Evaluation Details: a-In-vitro Assays for biological antioxidant Activity […]
Linear regression analysis was performed to calculate drug concentration showing 50% free radical inhibition activity (IC50). All tests were performed in triplicates.
-Scavenging of hydrogen peroxide
In this method, the decay or loss of hydrogen peroxide can be quantified spectrophotometrically at 230 nm when a scavenger is incubated with it. The procedure was applied with a few changes. In phosphate buffered saline, hydrogen […]
peroxide (20 mM) solution was prepared in phosphate buffered saline (PBS, pH 7.4). In order to make different concentrations of 1 ml of the tested substances (3–9) or standards in methanol, 2 ml of hydrogen peroxide solution in PBS was added. After 10 minutes, the absorbance of H2O2 was measured at 230 nm in comparison to an ascorbic acid (AA) reference solution that contained phosphate buffer but no H2O2.
% of H2O2 scavenging = [(A control -A sample) / A control] x100. […]

Series [2] can be described thus: DPPH radical scavenging assay. The class given is biochemical. The note with it: mean ± SEM of three experiments. As to the method:
The antioxidant potential of all target compounds (3–9) was determined using DPPH radical scavenging assay in comparison with ascorbic acid (AA) as the control treatment.
The mechanism of antioxidants as DPPH radical scavengers is based on their hydrogen-donation ability as hydrogen atoms or an electron transfer from the compound to the DPPH to form DPPH-H. The results of DPPH reduction are presented in Table 2, Figure 7.
The DPPH scavenging activity of all novel synthesized compounds (3–9) was measured as previously described (see Supplementary Materials).
1-Biological Evaluation Details: a-In-vitro Assays for biological antioxidant Activity
- DPPH scavenging method.
A 96-well plate was filled with 100 µL of the investigated compounds at various concentrations (12.5, 25, 50, 100, and 200 µg/mL ). The plate was then incubated at room temperature for 30 min while being protected from light by adding 100 µL of 100µM DPPH methanolic solution to each well. At a λ517 nm. the solution's absorbance was measured.
The positive control was ascorbic acid, and the negative control was DMSO. According to the following equation, the percentage of DPPH scavenging activity was determined:
% of DPPH scavenging = [(A control -A sample) / A control] x100. where A control is the absorbance of the control reaction (with all reagents except the test compound), and A sample is the absorbance of the test sample. Linear regression analysis was performed to calculate drug concentration showing 50% free radical inhibition activity (IC50). All tests were performed in triplicates. […]
For orientation: DPPH is a stable violet radical that fades when it is reduced.

A further series deals with T1, Soybean 15-LOX enzyme (Glycine max, UniProt P08170).
T1 construct: purchased Cayman Chemical 760700
T1 sequence (P08170 1-839): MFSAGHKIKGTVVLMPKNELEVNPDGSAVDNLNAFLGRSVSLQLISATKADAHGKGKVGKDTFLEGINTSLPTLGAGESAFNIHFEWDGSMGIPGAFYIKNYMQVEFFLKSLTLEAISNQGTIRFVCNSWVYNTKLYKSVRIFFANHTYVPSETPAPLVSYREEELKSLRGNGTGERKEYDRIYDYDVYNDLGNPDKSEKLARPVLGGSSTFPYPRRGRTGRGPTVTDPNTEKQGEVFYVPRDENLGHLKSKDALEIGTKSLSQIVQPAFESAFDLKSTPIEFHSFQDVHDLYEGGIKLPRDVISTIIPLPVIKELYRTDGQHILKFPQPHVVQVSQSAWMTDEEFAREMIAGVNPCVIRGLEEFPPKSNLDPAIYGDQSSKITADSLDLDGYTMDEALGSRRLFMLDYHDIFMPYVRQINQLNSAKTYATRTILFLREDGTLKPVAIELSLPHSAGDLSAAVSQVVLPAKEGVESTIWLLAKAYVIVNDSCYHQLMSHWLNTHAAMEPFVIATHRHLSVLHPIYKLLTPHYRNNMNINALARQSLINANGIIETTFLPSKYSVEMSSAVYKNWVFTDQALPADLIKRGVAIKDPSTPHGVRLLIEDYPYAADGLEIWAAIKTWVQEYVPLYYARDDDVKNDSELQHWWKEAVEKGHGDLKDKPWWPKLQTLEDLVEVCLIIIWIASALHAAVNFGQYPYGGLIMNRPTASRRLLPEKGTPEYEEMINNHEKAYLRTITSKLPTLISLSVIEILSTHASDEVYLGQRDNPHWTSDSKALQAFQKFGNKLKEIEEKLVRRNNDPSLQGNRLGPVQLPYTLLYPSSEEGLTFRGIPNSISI
Put plainly: In vitro 15-lipoxygenase inhibition (Cayman Lipoxygenase Inhibitor Screening Assay Kit). The class given is biochemical. The following applies: Soybean 15-LOX, arachidonic acid substrate; mean ± SEM of three experiments. The protocol:
90 µL of 15-LOX was pipetted into a 96-well plate quickly. The test chemical was then dissolved in DMSO in 10 µL portions at concentrations of 2.5 µM, 5.0 µM, and 10 µM and added to each well. Arachidonic acid, a 110 µL substrate, was added to start the reaction, and the plate was shaken for at least five minutes. In order to interrupt enzyme catalysis and advance the reaction, 100 µL of chromogen was added to each well and made in accordance with the manufacturer’s instructions. In blank wells, 100 µL of assay buffer (0.1 M Tris-HCl, pH 7.4) was utilized. […] The solution’s absorbance was determined at λ 490–500 nm. The percentage inhibition was calculated according to the following equation:% inhibition = [(IA − Ainhibitor sample)/IA] × 100(1) where (IA) is the 100% initial activity and (Ainhibitor sample) is the absorbance of the test sample. A dose-response curve was plotted between % inhibition and the drug concentration. The non-linear dose-response curve was used for calculating drug concentration showing 50% enzyme inhibition.

Series [3] in a line: Lipid peroxidation assay (FeCl2/H2O2-stimulated linoleic acid peroxidation). The note with it: mean ± SEM of three experiments. Type of series: biochemical.
Details of series [4]: method as in PMID 23248677. The following applies: cited from earlier work.
For another series, the system named is human 15-LOX. The note with it: cited from earlier work.
Series [5] deals with 15-LOX-1. Also noted: method as in PMID 26560362. The following applies: human; cited from earlier work.
Series [6] concerns 15-LOX-1. Also noted: method as in PMID 26560362. The following applies: cited from earlier work.
Series [7] deals with 15-LOX-1. Also noted: method as in PMID 26560362. The following applies: rabbit enzyme; cited from earlier work.

Where two headings read alike, the source gives them in different places.

Broadly, the IC50 is the concentration that gives 50% inhibition. Broadly, the melting point is the temperature of the solid-liquid transition.

`Cc1cccc(C=NNc2nc(-c3cccc(NS(=O)(=O)c4c[nH]c(=S)[nH]c4=O)c3)cs2)c1` [Compound 9d, N-(3-{2-[(2E)-2(3-methylbenzylidene)hydrazine]-1,3-thiazol-4-yl}phenyl)-4-oxo-thioxo-1,2,3,4-tetrahydropyrimidine-5-sulfonamides] came in with a melting point of 326 to 328 °C. Also, in series [1], the “H2O2 IC50” value is reported as 15.0 ± 0.89 µg/mL. Also, the “DPPH IC50” value in series [2] is on record as 7.55 ± 1.70 µg/mL. For the same compound, at Soybean 15-LOX enzyme, the half-maximal inhibitory concentration (IC50) is 2500 ± 30 nM. Besides, the “Lipid Peroxidation IC50” value in [3] is reported as 20.0 ± 1.56 µg/mL.

Consider `CC1=C(C(=O)OC(C)C)C(c2ccco2)NC(=S)N1` (centres unmarked) [XII], for which, in [4], the “antioxidant activity IC50” value is 600 µg/mL.

With `COc1ccc(-c2cc3cc(F)c(F)cc3[nH]2)cc1NS(=O)(=O)c1cccs1` [XIV], the IC50 in the series with human 15-LOX (read-out: 15-LOX IC50) is 7 nM.

As to `O=c1c2cnc(N3CCOCC3)nc2sn1CCN1CCCCC1` [XIX], the 50% inhibitory concentration (IC50) in the series with 15-LOX-1 [5] is 120 nM.

As for `c1csc(C2CSC(c3nc4ccccc4[nH]3)=N2)c1` (centres unmarked) [XVIII], the IC50 in the series with 15-LOX-1 [6] is 96 nM.

On to `COc1ccc(-c2cc3cc(F)c(F)cc3[nH]2)cc1NC(=S)Nc1cccc(C(=O)O)c1` [XVII], for which the half-maximal inhibitory concentration (IC50) with 15-LOX-1 [7] was 2 nM.

Consider `O=S(=O)(Nc1cccc(-c2nc3cccnc3[nH]2)c1)c1cccs1` [XVI], for which, in the series on human 15-LOX (read-out: 15-LOX IC50), the IC50 is 10000 nM.

Regarding `CCCCCc1ccc(S(=O)(=O)NCCc2nc(-c3ccccc3)[nH]c2-c2ccc(OC)cc2)cc1` [XV], the IC50 is 50 nM in the series with human 15-LOX (AA, read-out: 15-LOX IC50 (AA)) and 17 nM in the series on human 15-LOX (LA, read-out: 15-LOX IC50 (LA)).

As for `O=C(O)c1cc(O)c(O)c(O)c1` [gallic acid], in series [4], the “antioxidant activity IC50” value is 0.8 µg/mL.
